Results published in patent US5208217A, “Hepatospecific insulin analogues” (Mount Sinai School of Medicine of The City University of …, priority 1991, dated 1993).

Key:
[1] = system: FAO cells (well differentiated hepatoma cell line); test: Inhibition of gluconeogenesis assay (glucose secretion into the medium); assay type: cell-based; conditions: FIG. 4
Experimental: This assay was carried out on confluent monolayers of a well differentiated hepatoma cell line (Lauris et al. Endocrinology 118:2519-2524 (1986)) in which glucose production was monitored with a commercial glucose oxidase kit (Sigma kit no. 510-A, Sigma Technical Bulletin 510, 1983). Inhibition of glucose secretion into the medium was determined as a function of the concentration of insulin or insulin analogue, and the relative potency of the analogue was defined as the ratio of the concentration of insulin to analogue required to produce half-maximal inhibition of glucose production. The cell culture and glucose production was carried out as described by Lauris et al., supra.
The potency of the synthetic insulin in inhibiting gluconeogenesis is calculated to be about 90% relative to the natural hormone.

isolated rat adipocytes = test: Lipogenesis assay: conversion of [3-3H] glucose into lipids; assay type: cell-based; conditions: FIG. 3
Description: In this Example the materials used and the analytical procedures followed are those found in Kitagawa et al., Biochemistry, 23: 1405-1413 (1984). ^125 I-insulin for receptor binding studies and [3-^3 H] glucose for lipogenesis were obtained from DuPont NEN Research Products. Cellulose acetate membrane filters, 0.2 μm pore size, were products of Sartorius. Glass-fiber filters, Type GFC, were from Whatman. Collagenase, Type II crude, was obtained from Worthington. The scintillation fluids Filtron-X®, Hydrofluor® and Soluscint-O® were products of National Diagnostics. Crystalline bovine insulin was from Sigma, and fatty-acid free bovine serum albumin from Boehringer - Mannheim Biochemicals.
The data points represent the mean triplicate determinations in representative assays performed four times.

## [Trp^14 -A] insulin
[1]
  Concentration of agonist producing half-maximal inhibition of gluconeogenesis compared with insulin: approximately the same concentration
  Maximum inhibition of gluconeogenesis compared with insulin: same maximum inhibition
Isolated rat adipocytes
  Concentration of agonist producing half-maximal stimulation of lipogenesis compared with bovine insulin: about twice the concentration
  Maximum stimulation of lipogenesis compared with bovine insulin: same maximum stimulation
